In ChEMBL document CHEMBL3991601, “The target landscape of clinical kinase drugs” (Science, 2017):
Activity calls are given as the source filed them.

Assays:
[1] = target: Obg-like ATPase 1 (Homo sapiens, UniProt Q9NTK5)
[2] = target: T1, Inhibitor of nuclear factor kappa-B kinase subunit epsilon (Homo sapiens, UniProt Q14164)
T1 sequence (Q14164 whole entry): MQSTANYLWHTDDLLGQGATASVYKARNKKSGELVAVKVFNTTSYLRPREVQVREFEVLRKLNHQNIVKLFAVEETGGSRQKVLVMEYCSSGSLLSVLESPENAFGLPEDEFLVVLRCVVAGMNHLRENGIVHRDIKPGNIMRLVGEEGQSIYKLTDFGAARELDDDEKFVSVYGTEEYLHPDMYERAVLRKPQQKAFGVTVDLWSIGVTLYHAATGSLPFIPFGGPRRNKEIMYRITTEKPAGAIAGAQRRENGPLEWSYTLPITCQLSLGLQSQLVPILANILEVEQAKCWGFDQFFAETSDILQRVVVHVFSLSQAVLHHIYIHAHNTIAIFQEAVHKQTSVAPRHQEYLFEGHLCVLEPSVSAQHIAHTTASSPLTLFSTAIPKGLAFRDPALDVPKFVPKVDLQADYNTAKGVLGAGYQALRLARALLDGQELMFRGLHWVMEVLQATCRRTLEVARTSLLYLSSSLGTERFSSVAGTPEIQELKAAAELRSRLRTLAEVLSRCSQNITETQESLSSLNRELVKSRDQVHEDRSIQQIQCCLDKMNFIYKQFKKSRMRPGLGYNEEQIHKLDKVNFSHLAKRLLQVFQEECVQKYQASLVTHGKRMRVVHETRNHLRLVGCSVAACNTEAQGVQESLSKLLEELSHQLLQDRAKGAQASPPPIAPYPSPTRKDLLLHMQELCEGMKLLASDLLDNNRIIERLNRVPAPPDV

[3] = target: Dual specificity protein kinase CLK4 (Homo sapiens, UniProt Q9HAZ1)
Dual specificity protein kinase CLK4, sequence (Q9HAZ1 whole entry): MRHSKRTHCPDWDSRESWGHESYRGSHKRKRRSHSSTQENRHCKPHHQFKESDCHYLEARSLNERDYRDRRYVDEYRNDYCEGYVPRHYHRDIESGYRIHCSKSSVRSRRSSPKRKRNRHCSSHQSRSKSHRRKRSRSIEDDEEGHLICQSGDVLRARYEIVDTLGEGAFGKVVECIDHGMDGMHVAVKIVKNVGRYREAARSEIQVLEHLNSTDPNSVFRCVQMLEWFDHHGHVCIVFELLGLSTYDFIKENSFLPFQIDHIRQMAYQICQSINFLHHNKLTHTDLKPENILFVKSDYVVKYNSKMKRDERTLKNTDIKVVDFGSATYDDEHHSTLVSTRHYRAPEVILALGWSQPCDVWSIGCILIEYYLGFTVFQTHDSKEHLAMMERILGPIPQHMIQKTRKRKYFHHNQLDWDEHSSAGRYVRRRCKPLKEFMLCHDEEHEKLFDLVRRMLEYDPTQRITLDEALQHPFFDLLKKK

[4] = target: T2, Isoleucine--tRNA ligase, mitochondrial (Homo sapiens, UniProt Q9NSE4)
T2 sequence (Q9NSE4 whole entry): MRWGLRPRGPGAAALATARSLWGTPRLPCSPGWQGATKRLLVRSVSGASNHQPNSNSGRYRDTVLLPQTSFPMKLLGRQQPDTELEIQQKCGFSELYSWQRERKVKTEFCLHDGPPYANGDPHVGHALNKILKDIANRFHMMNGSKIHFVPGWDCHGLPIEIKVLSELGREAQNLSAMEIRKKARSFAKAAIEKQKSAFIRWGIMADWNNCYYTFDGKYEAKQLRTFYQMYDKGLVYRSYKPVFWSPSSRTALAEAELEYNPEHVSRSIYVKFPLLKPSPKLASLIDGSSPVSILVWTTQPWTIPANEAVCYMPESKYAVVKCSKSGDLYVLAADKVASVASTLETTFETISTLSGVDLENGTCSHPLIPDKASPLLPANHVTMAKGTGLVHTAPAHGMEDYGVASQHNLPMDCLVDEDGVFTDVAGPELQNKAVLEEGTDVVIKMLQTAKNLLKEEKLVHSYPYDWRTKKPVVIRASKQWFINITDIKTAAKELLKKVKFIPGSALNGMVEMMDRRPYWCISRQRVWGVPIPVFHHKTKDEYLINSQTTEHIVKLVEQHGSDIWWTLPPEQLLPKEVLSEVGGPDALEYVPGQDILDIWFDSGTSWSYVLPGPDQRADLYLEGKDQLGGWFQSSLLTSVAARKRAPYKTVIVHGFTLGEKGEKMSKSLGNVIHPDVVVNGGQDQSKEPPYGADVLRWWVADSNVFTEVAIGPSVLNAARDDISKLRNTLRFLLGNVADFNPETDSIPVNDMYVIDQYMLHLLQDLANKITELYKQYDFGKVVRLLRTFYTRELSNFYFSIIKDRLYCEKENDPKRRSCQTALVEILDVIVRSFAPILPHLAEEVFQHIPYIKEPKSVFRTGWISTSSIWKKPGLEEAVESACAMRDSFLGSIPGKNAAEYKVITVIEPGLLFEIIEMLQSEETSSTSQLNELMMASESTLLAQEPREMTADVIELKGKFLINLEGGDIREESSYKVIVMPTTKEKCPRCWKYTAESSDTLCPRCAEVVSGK

[5] = target: Cyclin-dependent kinase 2 (Homo sapiens, UniProt P24941)
[6] = target: T3, Thyroid hormone receptor-associated protein 3 (Homo sapiens, UniProt Q9Y2W1)
T3 sequence (Q9Y2W1 whole entry): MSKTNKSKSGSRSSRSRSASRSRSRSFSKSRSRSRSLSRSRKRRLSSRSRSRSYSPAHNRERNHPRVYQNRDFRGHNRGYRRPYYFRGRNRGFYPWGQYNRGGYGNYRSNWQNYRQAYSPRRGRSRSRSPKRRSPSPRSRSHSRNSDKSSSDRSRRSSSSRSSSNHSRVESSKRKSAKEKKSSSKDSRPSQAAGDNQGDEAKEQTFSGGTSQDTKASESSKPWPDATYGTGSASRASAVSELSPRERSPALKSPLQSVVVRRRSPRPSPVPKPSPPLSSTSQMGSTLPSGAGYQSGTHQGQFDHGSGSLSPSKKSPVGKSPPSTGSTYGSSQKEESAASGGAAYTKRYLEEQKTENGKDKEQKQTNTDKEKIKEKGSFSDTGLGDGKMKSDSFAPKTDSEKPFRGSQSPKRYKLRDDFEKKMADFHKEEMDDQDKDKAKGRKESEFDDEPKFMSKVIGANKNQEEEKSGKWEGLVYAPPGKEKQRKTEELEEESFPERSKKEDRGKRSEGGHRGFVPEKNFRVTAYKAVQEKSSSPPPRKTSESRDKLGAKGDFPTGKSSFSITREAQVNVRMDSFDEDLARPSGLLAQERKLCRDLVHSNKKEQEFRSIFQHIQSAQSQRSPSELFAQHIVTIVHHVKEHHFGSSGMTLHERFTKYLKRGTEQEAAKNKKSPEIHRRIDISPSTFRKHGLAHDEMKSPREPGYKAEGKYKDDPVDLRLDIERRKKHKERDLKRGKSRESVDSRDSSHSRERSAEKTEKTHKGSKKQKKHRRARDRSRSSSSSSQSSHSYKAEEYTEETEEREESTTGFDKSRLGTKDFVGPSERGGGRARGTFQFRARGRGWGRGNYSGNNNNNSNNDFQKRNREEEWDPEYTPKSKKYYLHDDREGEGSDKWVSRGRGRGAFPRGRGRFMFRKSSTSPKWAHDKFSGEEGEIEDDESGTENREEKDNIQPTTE

[7] = target: Serine/threonine-protein kinase ATR (Homo sapiens, UniProt Q13535)
Serine/threonine-protein kinase ATR, sequence (Q13535 whole entry): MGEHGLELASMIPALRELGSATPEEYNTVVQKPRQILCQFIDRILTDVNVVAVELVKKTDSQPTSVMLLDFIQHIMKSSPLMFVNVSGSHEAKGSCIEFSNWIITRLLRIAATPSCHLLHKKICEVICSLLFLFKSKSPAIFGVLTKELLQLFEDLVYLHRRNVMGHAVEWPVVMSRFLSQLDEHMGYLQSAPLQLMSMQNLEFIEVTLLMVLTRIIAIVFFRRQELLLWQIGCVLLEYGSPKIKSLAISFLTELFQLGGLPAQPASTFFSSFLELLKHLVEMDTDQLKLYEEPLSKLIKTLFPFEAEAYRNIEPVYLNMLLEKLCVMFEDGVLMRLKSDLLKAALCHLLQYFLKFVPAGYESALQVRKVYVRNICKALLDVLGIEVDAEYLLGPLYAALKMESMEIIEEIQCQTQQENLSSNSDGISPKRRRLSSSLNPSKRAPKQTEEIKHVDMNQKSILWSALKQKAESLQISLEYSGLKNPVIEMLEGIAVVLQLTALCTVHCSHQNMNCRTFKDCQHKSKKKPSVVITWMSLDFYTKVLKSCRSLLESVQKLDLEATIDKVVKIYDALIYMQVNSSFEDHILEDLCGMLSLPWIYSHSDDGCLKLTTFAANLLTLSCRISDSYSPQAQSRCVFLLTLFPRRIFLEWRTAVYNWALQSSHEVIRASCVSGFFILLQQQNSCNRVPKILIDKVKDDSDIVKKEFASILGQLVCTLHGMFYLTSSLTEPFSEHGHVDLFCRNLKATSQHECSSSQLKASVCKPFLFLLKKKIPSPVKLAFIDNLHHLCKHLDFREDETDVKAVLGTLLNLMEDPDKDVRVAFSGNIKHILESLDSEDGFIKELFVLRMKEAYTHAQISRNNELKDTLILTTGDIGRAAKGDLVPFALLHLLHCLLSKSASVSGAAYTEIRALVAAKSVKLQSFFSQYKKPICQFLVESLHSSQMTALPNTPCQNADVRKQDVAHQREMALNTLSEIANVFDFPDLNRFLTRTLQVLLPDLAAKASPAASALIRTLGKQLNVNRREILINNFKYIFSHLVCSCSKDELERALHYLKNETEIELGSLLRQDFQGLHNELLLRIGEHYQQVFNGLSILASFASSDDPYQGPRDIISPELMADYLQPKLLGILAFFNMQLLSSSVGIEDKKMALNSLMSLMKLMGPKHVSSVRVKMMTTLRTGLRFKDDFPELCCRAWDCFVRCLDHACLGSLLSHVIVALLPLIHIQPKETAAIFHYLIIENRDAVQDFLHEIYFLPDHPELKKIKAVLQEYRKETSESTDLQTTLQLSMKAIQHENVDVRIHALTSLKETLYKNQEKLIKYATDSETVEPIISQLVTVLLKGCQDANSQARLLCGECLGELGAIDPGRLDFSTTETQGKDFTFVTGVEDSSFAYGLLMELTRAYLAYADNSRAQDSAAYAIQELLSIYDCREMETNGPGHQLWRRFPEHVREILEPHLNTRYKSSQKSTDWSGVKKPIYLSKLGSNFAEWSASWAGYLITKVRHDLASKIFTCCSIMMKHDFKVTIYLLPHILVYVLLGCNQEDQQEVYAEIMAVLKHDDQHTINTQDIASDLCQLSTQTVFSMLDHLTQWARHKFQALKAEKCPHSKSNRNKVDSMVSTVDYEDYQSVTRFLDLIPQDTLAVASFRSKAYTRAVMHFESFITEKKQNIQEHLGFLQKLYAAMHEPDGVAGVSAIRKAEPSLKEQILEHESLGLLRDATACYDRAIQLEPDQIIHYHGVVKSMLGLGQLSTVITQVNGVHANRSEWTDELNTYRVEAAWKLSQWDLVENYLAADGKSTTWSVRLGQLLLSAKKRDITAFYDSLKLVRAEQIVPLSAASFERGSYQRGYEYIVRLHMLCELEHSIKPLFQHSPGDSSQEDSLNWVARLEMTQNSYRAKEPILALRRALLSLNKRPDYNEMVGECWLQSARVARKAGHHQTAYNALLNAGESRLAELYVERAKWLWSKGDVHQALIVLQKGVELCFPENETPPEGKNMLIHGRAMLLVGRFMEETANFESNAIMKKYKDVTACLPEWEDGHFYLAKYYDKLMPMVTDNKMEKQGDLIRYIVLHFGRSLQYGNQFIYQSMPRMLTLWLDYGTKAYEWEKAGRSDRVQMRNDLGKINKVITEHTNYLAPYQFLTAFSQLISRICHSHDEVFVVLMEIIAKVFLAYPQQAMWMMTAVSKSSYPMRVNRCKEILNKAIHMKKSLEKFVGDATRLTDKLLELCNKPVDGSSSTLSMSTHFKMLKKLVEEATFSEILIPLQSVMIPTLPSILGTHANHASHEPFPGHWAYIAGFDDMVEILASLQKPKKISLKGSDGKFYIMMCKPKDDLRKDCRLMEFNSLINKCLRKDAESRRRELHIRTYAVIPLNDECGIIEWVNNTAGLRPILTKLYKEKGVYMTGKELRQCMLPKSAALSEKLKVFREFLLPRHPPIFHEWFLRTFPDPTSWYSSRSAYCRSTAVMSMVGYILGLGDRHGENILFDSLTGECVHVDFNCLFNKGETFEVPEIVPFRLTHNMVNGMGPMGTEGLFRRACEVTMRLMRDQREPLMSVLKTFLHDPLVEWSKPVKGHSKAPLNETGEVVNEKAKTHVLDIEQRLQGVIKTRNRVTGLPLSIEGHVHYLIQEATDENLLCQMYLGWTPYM

Measured: Kd
Also: in the data inactive means no Kd found up to 30 µM.

Obg-like ATPase 1, sequence (Q9NTK5 whole entry, looked up): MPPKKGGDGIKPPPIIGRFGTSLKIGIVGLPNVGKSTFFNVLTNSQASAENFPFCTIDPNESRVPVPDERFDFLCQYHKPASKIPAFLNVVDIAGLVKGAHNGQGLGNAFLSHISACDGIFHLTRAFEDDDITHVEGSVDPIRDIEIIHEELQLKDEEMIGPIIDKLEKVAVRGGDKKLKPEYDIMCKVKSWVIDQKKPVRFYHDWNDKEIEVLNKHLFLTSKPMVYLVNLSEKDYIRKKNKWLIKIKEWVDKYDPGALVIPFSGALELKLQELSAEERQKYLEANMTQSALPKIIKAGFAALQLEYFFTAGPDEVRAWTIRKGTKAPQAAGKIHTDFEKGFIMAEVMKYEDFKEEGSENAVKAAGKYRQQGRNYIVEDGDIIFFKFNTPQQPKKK

CCS(=O)(=O)N1CC(CC#N)(n2cc(-c3ncnc4[nH]ccc34)cn2)C1 [BARICITINIB]
inactive: [1] > 30 µM | [2] > 30 µM | [3] > 30 µM | [4] > 30 µM | [5] > 30 µM | [6] > 30 µM | [7] > 30 µM

COc1ccc(-c2ccc3c(N4CCOC[C@@H]4C)nc(N4CCOC[C@@H]4C)nc3n2)cc1CO [AZD-8055]
inactive: [1] > 30 µM | [2] > 30 µM | [3] > 30 µM | [4] > 30 µM | [5] > 30 µM | [6] > 30 µM | [7] > 30 µM

COc1cc2nccc(Oc3ccc(NC(=O)Nc4cc(C)on4)c(Cl)c3)c2cc1OC [TIVOZANIB]
inactive: [1] > 30 µM | [2] > 30 µM | [3] > 30 µM | [4] > 30 µM | [5] > 30 µM | [6] > 30 µM | [7] > 30 µM
